According to US6277835A, “Method of tumor treatment” (priority 2000, dated 2001):

Key:
[1] = tested on: kidney (blood urea nitrogen); experiment: Serum BUN assay; type: in vivo, C3H mice; conditions: day six
Source text: No anticoagulants were used.

[2] = tested on: peripheral white cell counts (bone marrow); experiment: Peripheral white cell counts; conditions: day 3; tirapazamine […]; cisplatin 10, 14 and 18 mg/kg
Method: Blood samples were taken from tail veins or by cardiac puncture. No anticoagulants were used. Peripheral white cell counts for individual mice were determined from 20 μl whole blood diluted in 0.280 ml 3% acetic acid. For serum BUN assays, blood from two mice was pooled, coagulated, vortexed, and centrifuged at 830 g for 15 minutes. After the serum was aspirated, BUN values were determined by a commercial clinical veterinary laboratory. Survival to 30 days was also recorded in another experiment.

[3] = tested on: RIF-1 cells
Method: (§1) For the studies on cells in vitro, RIF-1 cells were seeded into 60 mm glass petri dishes in Waymouth's medium supplemented with 15% fetal bovine serum at a concentration of 2×10^4 cells per dish. The experiments were performed 4 to 5 days later when there were approximately 10^6 cell per dish at the time of treatment. The growth medium was then replaced with 2 ml of medium without serum containing tirapazamine at a concentration of either 2 or 4 μg/ml. […] To achieve hypoxia, the dishes were loaded into specially fabricated, prewarmed aluminum gassing chambers which were placed in a shaking table and connected to a gassing manifold comprising a vacuum outlet line and inlet lines for air or nitrogen (+5% CO^2). […] After gassing, the chambers were sealed and incubated for one hour at 37 C.

[4] = tested on: FSaIIC Murine Fibrosarcoma; conditions: cited from earlier work
[5] = tested on: RIF-1 cells; experiment: In vitro RIF-1 clonogenic cell survival under hypoxic conditions; type: cell-based; conditions: Mus musculus, RIF-1, 1 h, read-out: cell survival
Method: as §1

SMILES	BUN level ([1]; 10 mg/kg cisplatin alone, similar to untreated)	BUN level ([1]; 14 mg/kg cisplatin alone, similar to untreated)	BUN level ([1]; 18 mg/kg cisplatin alone)	leukopenia [2]	cytotoxicity under aerobic conditions [3]	effect on tumor cells with carmustine ([4]; SR 4233 just before single-dose carmustine)	effect on tumor cells with cyclophosphamide ([4]; SR 4233 just before single-dose cyclophosphamide)	effect on tumor cells with melphalan ([4]; SR 4233 just before single-dose melphalan)	effect with cisplatin ([4]; SR 4233 just prior to single-dose cisplatin)	viability at 2 µg/mL [5] [%]	viability at 4 µg/mL [5] [%]
N.N.[Cl][Pt][Cl] [cisplatin]	approximately 30 mg/dl	approximately 30 mg/dl	about 80 mg/dl	mild leukopenia	–	–	–	–	–	–	–
Nc1n[n+]([O-])c2ccccc2[n+]1[O-] [tirapazamine, 3-amino-1,2,4-benzotriazine 1,4-dioxide]	–	–	–	–	no cytotoxicity	marked dose enhancement leading to synergistic cytotoxic effects on tumor cells	marked dose enhancement leading to synergistic cytotoxic effects on tumor cells	marked dose enhancement leading to synergistic cytotoxic effects on tumor cells	additive effect, except at the highest dose level of cisplatin	30	0.9
